Patent US5696093A (CRC for Biopharmaceutical Research Pty Limited, priority 1994, dated 1997)
“Also recorded” adds a separate entry of the source. Where two headings read alike, the source gives them in different places. One block for each molecule: values may come before it. Where no end group is shown, it is not given here.

Key:
[1] = system: internal maxillary artery; assay: Local intra arterial injection, vascular resistance in the internal maxillary artery (Rma); assay type: in vivo; details: dog; for effect on Rma, in words / rank order potency on a molar basis (reduction of Rma): local intra arterial injection; for vascular effect after pretreatment with adrenoceptor blockers and atropine: phentolamine, propranolol and atropine pretreatment
Protocol: Experiments were performed on twelve adult mixed breed dogs of both sexes weighing between 4 and 9 kg. These experiments were approved by the institutional animal care and ethics committee. The dogs were anaesthetised with pentobarbitone sodium (35 mg kg^-1 i.v.). The trachea was cannulated low in the neck and the animals were artifically ventilated. A catheter connected to a […] blood pressure transducer was placed in a femoral artery for systemic blood pressure monitoring. Another catheter was inserted in a femoral vein for administration of compounds and further doses of anaesthetic as required (0.5-1 ml of a 1-in-5 dilution of pentobarbitone). The left cervical vagus nerve was dissected high in the neck, the vagal sheath was removed and then the sympathetic nerve was separated from the vagal trunk. […] The left zygomatic arch was removed and the […] the sphenopalatine ganglion were exposed by a procedure similar to the one described by […] & Wilson (1973). Bipolar platinum electrodes connected to a Grass S 88 stimulator (Grass Instruments, Quincy, USA) were used for stimulation of the proximal portion of the cervical sympathetic nerve and the cut peripheral end of the parasympathetic nerve. The identification of cervical sympathetic nerve was confirmed by observing dilation of the pupil with its electrical stimulation. The left external carotid artery was […] up to the internal maxillary artery. The main arterial branches located beyond to the superficial temporal artery were ligated as described previously by Lacroix et al. (1988), a procedure which leaves the internal maxillary artery flow supplying only the nasal mucosa. The superficial temporal artery was cannulated for selective injection of agents into the main nasal arterial blood supply. The nasal arterial blood flow was recorded with a transonic flow probe (3SB454) placed around the internal maxillary artery and connected to a T206 ultrasonic blood flowmeter (Transonic System Inc., N.Y., U.S.A.). All parameters were continuously recorded on a Grass polygraph model 7C in all experiments. The animals were allowed a one hour intervention-free period following completion of surgery. Group 1 (n+8): […] The administration of saline alone had no measurable effect. An interval of 5 min was allowed between successive injections. Fifteen minutes after the completion of the ACh, VIP, PH1 and NA injections, parasympathetic nerve stimulations (5 V, 5 ms) were performed at continuous frequencies of 10, 20 and 30 Hz, each for 10 sec. Each stimulation was performed 3 min after the blood flow in the internal maxillary artery returned to base line from the preceding stimulation. Sympathetic nerve stimulation (15 V, 5 ms) was then performed continuously at 10 Hz for 3 min. Parasympathetic nerve stimulations were repeated five minutes, thirty minutes and then one hour after sympathetic nerve stimulation. This entire protocol was repeated after pretreatment with the α-adrenoceptor antagonist phentolamine (0.5 mg kg^-1 h^-1), the β-adrenoceptor antagonist propranolol (1 mg kg^-1) and the parasympathetic muscarinic receptor blocker atropine (0.5 mg kg^-1), all delivered by local intra arterial (i.a.) injection. […] Analysis of results: changes of the nasal arterial blood flow were expressed in terms of vascular resistance in the maxillary artery (Rma), obtained by dividing the driving mean arterial blood pressure in the femoral artery by the peak value of the blood flow volume rate in the maxillary artery. Before each experiment a zero flow in the maxillary artery was obtained by clamping the artery upstream to the transonic probe for 30 sec. The duration of the responses were given in second sand calculated from the end of the electrical stimulation until return to former basal values. All data are presented as mean ± standard error of the […]. Statistical differences were evaluated using one way ANOVA test.

endogenous ATP receptor = assay: Calcium response to ATP in Y1 receptor-transfected CHO cells; assay type: cell-based, Chinese Hamster; details: 1 μM ATP
Protocol: Cells were suspended in loading media (Modified RPMI, 10 mM Hepes, 1% newborn fetal calf serum) and incubated in a spinner flask at 37° C., for 2.5 hours at 1×10^6 cells/ml. Cells were then treated with […] Fura-2 AM for 30 minutes at 37° C., washed twice with loading media and resuspended at 5×10^6 cells/ml. Immediately before use in fluorescence spectroscopy, cells were recovered by centrifugation at 1000 rpm and resuspended at 1×10^6 cells/ml in a modified Krebs buffer (135 mM NaCl, 4.7 mM KCl; 1.2 /nM MgSO4, 1.2 mM KH2 PO4, 5 mM NaHCO3, 1 mM CaCl2, 2.8 mM glucose, and 10 mM Hepes, pH 7.4) containing 1 mM sulphinpyrazone. Fluorescence recordings were made on an Hitachi fluorescence spectrometer (F4010) at 340 nm (excitation) and 505 nm (emission) over 10 minutes with slit widths of 5 nm and a response time of 2 seconds. Intracellular calcium levels were quantitated using equations described (Grynkiewicz et al., 1985).

dog nasal mucosa = assay: Parasympathetic nerve-evoked nasal vasodilatation in anaesthetised dogs; assay type: in vivo; details: for parasympathetic vasodilatation after administration, in words: i.v.
[2] = molecular target: T1, neuropeptide Y Y2 receptor (Homo sapiens, UniProt P49146); assay: Competition with radiolabelled peptide YY for binding to SMS-KAN cells
T1 construct: endogenous in cells; host or cells: SMS-KAN human neuroblastoma cells (whole cells; gift of Dr Thue Schwartz)
T1 sequence (P49146 1-381): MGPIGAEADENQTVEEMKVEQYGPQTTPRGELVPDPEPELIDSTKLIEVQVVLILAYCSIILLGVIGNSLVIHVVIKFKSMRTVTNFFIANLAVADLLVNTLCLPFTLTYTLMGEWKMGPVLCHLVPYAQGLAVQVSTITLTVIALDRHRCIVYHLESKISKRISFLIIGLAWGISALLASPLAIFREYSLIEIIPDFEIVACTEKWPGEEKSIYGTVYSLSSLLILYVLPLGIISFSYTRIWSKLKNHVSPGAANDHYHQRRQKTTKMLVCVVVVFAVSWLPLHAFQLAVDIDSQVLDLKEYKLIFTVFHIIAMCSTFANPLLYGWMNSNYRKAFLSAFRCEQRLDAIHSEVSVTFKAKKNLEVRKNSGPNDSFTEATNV
Description: (§1) All media and materials for tissue culture were obtained from Cytosystems (Castle Hill, NSW, Australia). Cells were harvested by treatment with 0.2% EDTA in phosphate buffered saline and immediately used in the binding assay described.

[3] = molecular target: T2, prejunctional (neuropeptide Y Y2) receptor (Rattus norvegicus, UniProt Q9ERC0); assay: Inhibition of cardiac vagal action in anaesthetised rats (prejunctional activity); assay type: in vivo; details: for EC50 / inhibition of cardiac vagal action (prejunctional effect), in words: anaesthetised rats, i.v.; for EC50: log of the dose which evokes 50% of the maximum response, mean ± SEM, five rats
T2 construct: from tissue; host or cells: whole anaesthetised Wistar rat (cardiac vagal nerve endings)
T2 sequence (Q9ERC0 1-381): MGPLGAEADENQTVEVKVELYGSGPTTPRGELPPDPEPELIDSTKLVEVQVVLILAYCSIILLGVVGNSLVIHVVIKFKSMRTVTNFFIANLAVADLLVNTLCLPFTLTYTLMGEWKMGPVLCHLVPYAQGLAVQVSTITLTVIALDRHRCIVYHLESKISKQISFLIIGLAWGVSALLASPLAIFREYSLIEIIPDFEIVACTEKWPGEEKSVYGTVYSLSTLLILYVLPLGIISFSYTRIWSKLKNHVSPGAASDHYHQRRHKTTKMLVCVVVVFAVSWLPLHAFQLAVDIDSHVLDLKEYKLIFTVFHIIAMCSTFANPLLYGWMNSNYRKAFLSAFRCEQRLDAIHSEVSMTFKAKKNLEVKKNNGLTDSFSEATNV
Protocol: Experiments were carried out on adult rats (Wistar) of both sexes (250-350 g), anaesthetised with sodium pentobarbitone (Nembutal, Boehringer-Ingleheim; 60 mg/kg, i.p.). […] The femoral vein was cannulated for administration of peptides and further doses of anaesthetic. The left femoral artery was cannulated to record arterial pressure. Both vagus nerves were cut. […] The electrocardiogram was measured using needle electrodes and monitored on one channel of an osciloscope. Pulse interval (the period between successive beats of the heart) was recorded beat-by-beat by triggering from ECG. Pulse interval and arterial pressure were recorded on the pen recorder.
Dose-response curves were constructed from group data for all rats. Because of the long time-course of action of the peptides tested, not all peptides were given to each rat.

[4] = molecular target: T3, postjunctional (neuropeptide Y Y1) receptor (Rattus norvegicus, UniProt P21555); assay: Pressor action (arterial blood pressure) in anaesthetised rats (postjunctional activity); assay type: in vivo; details: i.v.
T3 construct: from tissue; host or cells: whole anaesthetised Wistar rat (vasculature)
T3 sequence (P21555 1-382): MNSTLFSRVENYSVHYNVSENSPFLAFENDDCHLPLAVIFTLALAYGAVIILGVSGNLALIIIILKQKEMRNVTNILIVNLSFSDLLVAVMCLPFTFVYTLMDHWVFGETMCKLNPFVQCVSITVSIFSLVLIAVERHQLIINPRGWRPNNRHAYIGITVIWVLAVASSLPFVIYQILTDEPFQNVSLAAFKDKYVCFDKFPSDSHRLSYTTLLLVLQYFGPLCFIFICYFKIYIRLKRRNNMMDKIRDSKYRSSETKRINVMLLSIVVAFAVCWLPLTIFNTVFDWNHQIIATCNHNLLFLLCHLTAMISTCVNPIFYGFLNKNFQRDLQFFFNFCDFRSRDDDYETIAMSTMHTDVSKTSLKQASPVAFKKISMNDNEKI
Protocol: Experiments were carried out on adult rats (Wistar) of both sexes (250-350 g), anaesthetised with sodium pentobarbitone (Nembutal, Boehringer-Ingleheim; 60 mg/kg, i.p.). The trachea was cannulated and the animal artifically ventilated. The femoral vein was cannulated for administration of peptides and further doses of anaesthetic. The left femoral artery was cannulated to record arterial pressure. Both vagus nerves were cut. […] The frequency was chosen to increase pulse interval by approximately 100 ms, a submaximal effect on this variable. The electrocardiogram was measured using needle electrodes and monitored on one channel of an osciloscope. Pulse interval (the period between successive beats of the heart) was recorded beat-by-beat by triggering from ECG. Pulse interval and arterial pressure were recorded on the pen recorder. […]
As an indication of prejunctional activity two parameters were measured; the maximum percent inhibition of the increase in pulse interval evoked by stimulation of the vagus nerve following injection of peptide (Δ pulse interval, % inhibition) and the time to half recovery of this effect (T50). For pressor action, an indicator of postjunctional activity, two parameters were also measured; the peak pressor response following injection of peptide (Δ blood pressure) and the duration of the increase in blood pressure (Duration). […]

[5] = molecular target: T4, neuropeptide Y Y1 receptor (Homo sapiens, UniProt P25929); assay: Competition with radiolabelled peptide YY for binding to SK-N-MC cells
T4 construct: host or cells: SK-N-MC human neuroblastoma cells (whole cells)
T4 sequence (P25929 1-384): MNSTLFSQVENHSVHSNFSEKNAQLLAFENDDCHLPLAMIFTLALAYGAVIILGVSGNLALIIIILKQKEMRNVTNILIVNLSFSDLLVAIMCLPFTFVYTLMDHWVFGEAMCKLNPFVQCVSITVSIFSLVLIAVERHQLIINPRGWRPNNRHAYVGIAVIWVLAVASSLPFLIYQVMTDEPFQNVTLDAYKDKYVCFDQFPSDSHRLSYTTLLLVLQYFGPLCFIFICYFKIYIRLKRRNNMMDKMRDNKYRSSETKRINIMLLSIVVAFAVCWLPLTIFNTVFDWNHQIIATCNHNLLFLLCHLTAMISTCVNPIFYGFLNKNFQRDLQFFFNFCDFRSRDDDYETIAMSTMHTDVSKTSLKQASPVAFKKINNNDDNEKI
Description: as §1

[6] = system: internal maxillary artery; assay: Arterial blood pressure and nasal arterial blood flow in anaesthetised dogs after i.v. peptide; assay type: in vivo; details: dog, 8 nmol kg^-1 i.v.
Protocol: Experiments were performed on twelve adult mixed breed dogs of both sexes weighing between 4 and 9 kg. These experiments were approved by the institutional animal care and ethics committee. The dogs were anaesthetised with pentobarbitone sodium (35 mg kg^-1 i.v.). The trachea was cannulated low in the neck and the animals were artifically ventilated. A catheter connected to a Statham P23AC blood pressure transducer was placed in a femoral artery for systemic blood pressure monitoring. Another catheter was inserted in a femoral vein for administration of compounds and further doses of anaesthetic as required (0.5-1 ml of a 1-in-5 dilution of pentobarbitone). The left cervical vagus nerve was dissected high in the neck, the vagal sheath was removed and then the sympathetic nerve was separated from the vagal trunk. […] Bipolar platinum electrodes connected to a Grass S 88 stimulator (Grass Instruments, Quincy, USA) were used for stimulation of the proximal portion of the cervical sympathetic nerve and the cut peripheral end of the parasympathetic nerve. The identification of cervical sympathetic nerve was confirmed by observing dilation of the pupil with its electrical stimulation. The left external carotid artery was disserted up to the internal maxillary artery. […] The superficial temporal artery was cannulated for selective injection of agents into the main nasal arterial blood supply. The nasal arterial blood flow was recorded with a transonic flow probe (3SB454) placed around the internal maxillary artery and connected to a T206 ultrasonic blood flowmeter (Transonic System Inc., N.Y., U.S.A.). All parameters were continuously recorded on a Grass polygraph model 7C in all experiments. The animals were allowed a one hour intervention-free period following completion of surgery.
Group 1 (n+8): Solutions of ACh (5.5×10^-11 to 5.5×10^-8 mol). VIP (3×10^-11 to 3×10^-9 mol), PH1 (3.3×10^-11 to 1.6×10^-8 mol) and NA (6×10^-11 mol to 6×10^-8 mol) in 1 ml of saline, were infused into the superficial temporal artery over a period of 15 sec. […]

[7] = molecular target: T2, prejunctional (neuropeptide Y Y2) receptor; details: Potter et al., 1989; cited from earlier work

Molecule: CC(=O)OCC[N+](C)(C)C.[Cl-] [ACh, acetylcholine chloride]
effect on Rma, in words [1]: dose-dependant reductions of the Rma
rank order potency on a molar basis (reduction of Rma) [1]: ACh>VIP>PHI
vascular effect after pretreatment with adrenoceptor blockers and atropine [1]: virtually abolished

Molecule: Nc1ncnc2c1ncn2[C@@H]1O[C@H](COP(=O)(O)OP(=O)(O)OP(=O)(O)O)[C@@H](O)[C@H]1O [ATP]
calcium response to ATP after addition of N-acetyl [Leu28, Leu31] neuropeptide Y-(24-36) (endogenous ATP receptor): 33.8 nM
calcium response to ATP before addition of N-acetyl [Leu28, Leu31] neuropeptide Y-(24-36) (endogenous ATP receptor): 46.3 nM

Molecule: NC[C@H](O)c1ccc(O)c(O)c1 [NA]
effect on Rma, in words [1]: dose-dependant increases in Rma
vascular effect after pretreatment with adrenoceptor blockers and atropine [1]: virtually abolished

Molecule: C[N+](C)(C)CC[N+]1(C)Cc2c(Cl)c(Cl)c(Cl)c(Cl)c2C1 [chlorisondamine]
vasodilatation evoked by vidian nerve stimulation after ganglion blocker (dog nasal mucosa; 2 mg kg^-1, i.v.): inhibition of vasodilatation

IC50 [2]: 3.9 ± 0.4 nM
EC50 ([3]; read-out: EC50 for T50 (time to half recovery of vagal inhibition) (converted)): 2.51 nM
EC50 ([3]; read-out: EC50 for Δ pulse interval (converted)): 3.16 nM
Molecule: Ac-LRHYLNLLTRQRY-NH2 [N-acetyl [Leu^28, Leu^31] neuropeptide Y-(24-36)]

IC50 [2]: 12.7 ± 1.2 nM
duration of transient response (T50) ([3]; Table 1 footnote, no EC50 calculated): < 2 min
Molecule: LRHYLNLLTRQRY-NH2 [[Leu^28, Leu^31] neuropeptide Y-(24-36)]
pressor effect (Δ blood pressure), in words [4]: did not significantly increase blood pressure at any dose tested
binding to Y1 receptor on SK-N-MC cells, in words [5]: neither N-acetyl [Leu^28, Leu^31 ] neuropeptide Y-(24-36) or [Leu^28, Leu^31 ] neuropeptide Y-(24-36) shoed significant binding
inhibition of cardiac vagal action (prejunctional effect), in words [3]: significant inhibitory or prejunctional actions but these effects are transient
inhibition of cardiac vagal action (prejunctional effect), in words ([3]; listed as [Leu^27, Leu^31 ] neuropeptide Y-(24-36)): significant inhibitory effects on cardiac vagal action

Molecule: [Leu^31, Pro^34 ] neuropeptide Y [[Leu^31, Pro^34] NPY]
parasympathetic vasodilatation after administration, in words (dog nasal mucosa; Y1 agonist 8 nmol kg^-1, Y2 agonist 20 nmol kg^-1): no influence on the parasympathetic nerve-evoked vasodilatation; also recorded: no influence on the subsequent parasympathetic vasodilatation
parasympathetic vasodilatation after administration, in words (dog nasal mucosa; Y1 agonist 8 nmol kg^-1, Y2 agonist 20 nmol kg^-1, Pro^31 ] NPY): not modified
duration of the blood pressure increase [6]: more than 7 min
reduction of blood flow in the internal maxillary artery (nasal mucosa blood flow) [6]: ~20%
increase in arterial blood pressure ([6]; after phentolamine, propranolol and atropine): 23±2.8 mmHg

Molecule: neuropeptide Y-(13-32)
prejunctional activity in vivo, earlier study [7]: inactive in vivo

Molecule: peptide histidine isoleucine [PHI]
effect on Rma, in words [1]: dose-dependant reductions of the Rma
rank order potency on a molar basis (reduction of Rma) [1]: ACh>VIP>PHI
vascular effect after pretreatment with adrenoceptor blockers and atropine [1]: remained intact

Molecule: vasoactive intestinal polypeptide [VIP]
effect on Rma, in words [1]: dose-dependant reductions of the Rma
rank order potency on a molar basis (reduction of Rma) [1]: ACh>VIP>PHI
vascular effect after pretreatment with adrenoceptor blockers and atropine [1]: remained intact
